This passage reports IC50 results from US20140249139A1, “Quinazoline Derivatives” (NOVARTIS AG, priority 2011, published 2014).

For one assay, the target named is T1, PI3K alpha (Homo sapiens, UniProt P42336).
T1 construct: for the p110-a subunit (with a deletion of the first 20 amino acids) are generated; His tag (C); made in house; host or cells: baculovirus BV1075; Tn5 (Trichoplusia ni) or TiniPro insect cells
As to the kind of experiment: Enzymatic PI3K alpha isoform inhibition (lipid kinase activity, Kinase-Glo). The settings on record: enzymatic assay. The format is biochemical. The method in brief: (§1)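 Reactions were started with ATP (2 μM solution) after the enzyme (10 nM solution) and phosphatidylinositol substrate (5 μg/ml solution) were added to the DMSO-dissolved compounds.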
(In general: Kinase-Glo reads ATP consumption through a luciferase reaction.)

The target in assay [1] is T2, PI3K delta (Homo sapiens, UniProt O00329).
T2 construct: for the full-length p110-d subunit are generated and fused by overlapping PCR; His tag (C); made in house; host or cells: baculovirus BV1060; Tn5 (Trichoplusia ni) or TiniPro insect cells
The experiment in a line: Enzymatic PI3K delta isoform inhibition (lipid kinase activity, Kinase-Glo). The settings on record: enzymatic assay. The format is biochemical. The method in brief:
as §1
T2 sequence (O00329 with tags, fused parts or gaps limits assumed, species assumed): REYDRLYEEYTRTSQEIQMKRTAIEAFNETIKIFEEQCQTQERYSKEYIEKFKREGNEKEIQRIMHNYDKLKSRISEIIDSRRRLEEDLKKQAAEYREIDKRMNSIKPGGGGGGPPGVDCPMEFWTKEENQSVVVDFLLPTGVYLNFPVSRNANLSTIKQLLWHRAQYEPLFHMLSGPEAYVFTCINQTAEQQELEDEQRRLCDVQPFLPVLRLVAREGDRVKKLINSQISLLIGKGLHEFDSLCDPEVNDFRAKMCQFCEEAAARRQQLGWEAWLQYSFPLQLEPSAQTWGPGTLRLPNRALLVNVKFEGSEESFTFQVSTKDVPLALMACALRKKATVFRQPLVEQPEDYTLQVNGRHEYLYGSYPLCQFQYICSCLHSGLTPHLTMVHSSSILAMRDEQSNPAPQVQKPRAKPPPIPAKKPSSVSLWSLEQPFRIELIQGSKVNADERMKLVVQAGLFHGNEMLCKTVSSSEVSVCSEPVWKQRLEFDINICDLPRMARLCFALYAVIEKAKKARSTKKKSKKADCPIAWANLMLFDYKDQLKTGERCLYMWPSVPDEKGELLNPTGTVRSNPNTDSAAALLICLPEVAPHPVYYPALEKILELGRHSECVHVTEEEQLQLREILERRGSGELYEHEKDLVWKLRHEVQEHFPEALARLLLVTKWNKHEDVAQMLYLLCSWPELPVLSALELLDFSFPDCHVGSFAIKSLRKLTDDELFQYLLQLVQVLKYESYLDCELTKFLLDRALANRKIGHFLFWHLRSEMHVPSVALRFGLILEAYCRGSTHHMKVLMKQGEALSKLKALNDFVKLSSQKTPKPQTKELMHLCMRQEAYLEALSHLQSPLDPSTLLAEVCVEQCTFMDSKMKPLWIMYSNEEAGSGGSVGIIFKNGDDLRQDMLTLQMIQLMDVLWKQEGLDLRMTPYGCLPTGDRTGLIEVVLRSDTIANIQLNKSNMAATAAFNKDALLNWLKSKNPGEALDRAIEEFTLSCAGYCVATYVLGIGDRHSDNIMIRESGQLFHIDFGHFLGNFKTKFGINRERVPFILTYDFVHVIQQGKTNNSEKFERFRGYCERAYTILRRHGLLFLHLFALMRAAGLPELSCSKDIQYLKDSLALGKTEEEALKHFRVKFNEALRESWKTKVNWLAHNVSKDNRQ

The target in assay [2] is T3, PI3K delta (Homo sapiens, UniProt O00329).
T3 construct: myristylation signal (myr) (N); HA tag (N); expressed in transfected cells; host or cells: Rat1 cells, stably transfected
T3 sequence (O00329 1-1044): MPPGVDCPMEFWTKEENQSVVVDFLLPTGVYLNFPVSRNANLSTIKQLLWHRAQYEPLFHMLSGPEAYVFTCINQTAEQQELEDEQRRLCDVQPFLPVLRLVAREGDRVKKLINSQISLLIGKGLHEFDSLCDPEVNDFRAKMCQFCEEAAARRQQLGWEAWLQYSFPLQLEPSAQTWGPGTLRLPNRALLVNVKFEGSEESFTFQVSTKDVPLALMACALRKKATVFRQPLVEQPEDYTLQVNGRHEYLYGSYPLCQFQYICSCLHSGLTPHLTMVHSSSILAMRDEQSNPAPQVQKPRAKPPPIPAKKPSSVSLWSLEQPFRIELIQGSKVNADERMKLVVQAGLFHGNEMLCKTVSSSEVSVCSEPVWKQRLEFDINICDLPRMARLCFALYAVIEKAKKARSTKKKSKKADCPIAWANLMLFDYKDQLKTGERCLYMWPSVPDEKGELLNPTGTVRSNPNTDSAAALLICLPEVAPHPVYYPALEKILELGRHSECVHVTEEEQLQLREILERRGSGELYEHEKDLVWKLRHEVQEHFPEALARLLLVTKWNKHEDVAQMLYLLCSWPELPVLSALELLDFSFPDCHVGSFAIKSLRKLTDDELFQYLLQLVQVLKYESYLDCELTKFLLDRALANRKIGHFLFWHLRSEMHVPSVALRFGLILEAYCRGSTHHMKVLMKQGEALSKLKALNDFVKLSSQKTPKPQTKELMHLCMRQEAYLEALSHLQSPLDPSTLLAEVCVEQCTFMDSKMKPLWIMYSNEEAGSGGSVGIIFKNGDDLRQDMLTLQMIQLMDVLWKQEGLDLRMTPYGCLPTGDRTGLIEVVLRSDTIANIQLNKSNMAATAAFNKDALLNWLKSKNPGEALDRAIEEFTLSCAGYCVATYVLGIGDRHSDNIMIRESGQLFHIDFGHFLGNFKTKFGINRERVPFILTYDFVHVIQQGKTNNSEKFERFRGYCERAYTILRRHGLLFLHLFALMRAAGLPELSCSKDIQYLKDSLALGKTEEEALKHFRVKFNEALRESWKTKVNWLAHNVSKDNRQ
The experiment in a line: Cellular PI3K delta inhibition: PKB Ser473 phosphorylation in Rat1 cells expressing myr-HA-p110 delta. The format is cell-based, rat. The settings on record: 1 h incubation, read-out: Cell PI3Kd/ IC50. How it is done:
The compounds tested were prepared as 10 mM stock solutions in DMSO (Merck, #8.02912.2500). Test compounds were prepared in 384 well plates (Greiner PP-Microplate, #781201) in 3-fold serial dilutions in 90% DMSO (Merck, #8.02912.2500) with 8 concentrations starting at 2 mM. Test compounds were prediluted (1:400) in two subsequent 1:20 dilution steps (5 μl+95 μl) from the master plate into starving medium in 384 well plates using a MATRIX PlateMate 2×2 pipettor (384 well-head). 25 μl/well of this 1:400 dilution were then added to the cell culture plate.
The Rat1-myr-HA-p110 alpha, beta and delta cells were trypsinized and counted with a CASY TT cell counter (Schärfe System GmbH, Reutlingen Germany). Rat1 cells expressing myr-HA-p110 alpha, beta and delta were seeded in 384-well plates at 15,000 cells per well in 50 μl/well complete medium and incubated for 20 h at 37° C., 5% CO2 until the cell layers reached 80-90% confluency. […] in 384 well plates using a MATRIX PlateMate 2×2 pipettor (384 well-head). 25 μl/well of this 1:400 dilution were then added to the cell culture plate.
Untreated cells were used as low controls, cells stimulated in absence of compounds were used as high controls. After an incubation of 1 h with compounds, cells were lysed by addition of 15 μl 3× lysis buffer (provided as 5× solution with the SureFire kit) enriched with 0.72% BSA, yielding a total volume of 45 μl cell lysate per well. Cell lysates were either used immediately of stored frozen (in sealed plates) at −20° C. until use. 5 μl of each lysate were transferred to Proxy-plates and mixed with Surefire beads, reaction buffer (containing the appropriate antibodies), activation buffer and dilution buffer according to the instructions of the supplier, yielding a total volume of 12 μl per well (the total final BSA conc. in the assay was 0.1%). After 2 h incubation (with shaking) in the dark at RT, light emission was measured using the EnVision Reader (Perkin Elmer). The difference between high and low controls was taken as 100% and compound effects were expressed as percent inhibition. IC50 values were determined from the dose response curves by graphical extrapolation.

The structures appear in SMILES notation. Bounds are passed on as bounds.

T1 sequence (P42336 with tags, fused parts or gaps limits assumed, species assumed): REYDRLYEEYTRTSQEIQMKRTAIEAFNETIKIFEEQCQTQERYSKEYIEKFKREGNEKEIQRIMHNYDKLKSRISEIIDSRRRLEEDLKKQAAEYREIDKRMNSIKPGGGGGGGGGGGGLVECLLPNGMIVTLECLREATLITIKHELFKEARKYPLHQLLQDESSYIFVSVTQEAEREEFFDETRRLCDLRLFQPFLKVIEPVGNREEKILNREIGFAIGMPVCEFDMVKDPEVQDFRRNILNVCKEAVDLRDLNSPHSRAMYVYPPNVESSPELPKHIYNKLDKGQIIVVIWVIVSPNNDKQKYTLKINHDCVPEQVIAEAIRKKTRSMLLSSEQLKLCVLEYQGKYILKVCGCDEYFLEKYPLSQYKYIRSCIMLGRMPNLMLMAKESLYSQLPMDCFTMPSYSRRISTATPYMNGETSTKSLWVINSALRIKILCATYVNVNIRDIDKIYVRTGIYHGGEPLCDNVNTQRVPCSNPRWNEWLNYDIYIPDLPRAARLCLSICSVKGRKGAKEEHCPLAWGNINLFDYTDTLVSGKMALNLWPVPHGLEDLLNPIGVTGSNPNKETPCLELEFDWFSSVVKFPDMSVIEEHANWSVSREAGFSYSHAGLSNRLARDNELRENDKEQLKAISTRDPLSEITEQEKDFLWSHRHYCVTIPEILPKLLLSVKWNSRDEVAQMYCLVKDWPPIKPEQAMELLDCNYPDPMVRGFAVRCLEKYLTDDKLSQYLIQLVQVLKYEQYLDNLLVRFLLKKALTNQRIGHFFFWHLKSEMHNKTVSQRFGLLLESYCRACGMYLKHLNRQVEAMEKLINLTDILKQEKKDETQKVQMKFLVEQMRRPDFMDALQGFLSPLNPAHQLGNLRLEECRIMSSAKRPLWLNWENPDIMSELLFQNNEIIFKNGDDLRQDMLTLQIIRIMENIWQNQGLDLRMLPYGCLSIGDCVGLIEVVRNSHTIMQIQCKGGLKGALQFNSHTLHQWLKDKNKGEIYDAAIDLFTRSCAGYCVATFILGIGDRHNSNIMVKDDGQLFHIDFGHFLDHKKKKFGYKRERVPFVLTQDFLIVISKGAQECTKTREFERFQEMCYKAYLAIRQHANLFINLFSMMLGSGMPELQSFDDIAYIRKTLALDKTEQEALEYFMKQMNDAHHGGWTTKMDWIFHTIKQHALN

For `COc1ccc(-c2ccc3ncnc(-c4cccc(C(=O)N5CCN(C(C)=O)CC5)c4)c3c2)cc1S(=O)(=O)N1CCCC1` [Example 7], the IC50 turned out to be 712 nM against PI3K alpha, 6 nM against PI3K delta [1] and 83 nM on PI3K delta [2].
On to `COc1ccc(-c2ccc3ncnc(-c4ccc(C)c(C(=O)N5CC6CC5CN6C)c4)c3c2)cn1` (stereo not drawn) [Example 117], for which the IC50 against PI3K alpha is 238 nM; against PI3K delta [1], 9 nM; at PI3K delta [2], 43 nM.
In the same order, the values of `CNc1ncc(-c2ccc3ncnc(-c4cncc(C(=O)N5CCN(C)CC5)c4)c3c2)cc1C` [Example 75, {5-[6-(5-Methyl-6-methylamino-pyridin-3-yl)-quinazolin-4-yl]-pyridin-3-yl}-(4-methyl-piperazin-1-yl)-methanone] are 320 nM, 12 nM and 14 nM.
In the same order, the values of `COc1ccc(-c2ccc3ncnc(-c4cccc(C(=O)N5C[C@@H]6C[C@H]5CN6C)c4)c3c2)cn1` [Example 91, {3-[6-(6-Methoxy-pyridin-3-yl)-quinazolin-4-yl]-phenyl}-((1S,4S)-5-methyl-2,5-diaza-bicyclo[2.2.1]hept-2-yl)-methanone] are 146 nM, less than 3 nM and 32.3 nM.
In the same order, the values of `COc1ccc(-c2ccc3ncnc(-c4cc(F)cc(C(=O)N5CCN(C(C)=O)CC5)c4)c3c2)cn1` [Example 110, 1-(4-{3-Fluoro-5-[6-(6-methoxy-pyridin-3-yl)-quinazolin-4-yl]-benzoyl}-piperazin-1-yl)-ethanone] are 366 nM, 8 nM and 103 nM.
Consider `COc1ncc(-c2ccc3ncnc(-c4cccc(C(=O)N5CCN(C)CC5)c4)c3c2)cn1` [Example 2], for which the IC50 on PI3K alpha came out at 779 nM; against PI3K delta [1] it was 9.5 nM; at PI3K delta [2] it was 27.5 nM.
In the same order, the values of `COc1ccc(-c2ccc3ncnc(-c4cncc(C(=O)N5CCNC(C)(C)C5)c4)c3c2)cc1C(F)(F)F` [Example 81, (3,3-Dimethyl-piperazin-1-yl)-{5-[6-(4-methoxy-3-trifluoromethyl-phenyl)-quinazolin-4-yl]-pyridin-3-yl}-methanone] are 401 nM, 3.62 nM and 19.5 nM.
